What was measured:
human beta1-adrenoceptor = biological target: T1, human beta1-adrenoceptor (Homo sapiens, UniProt P08588); assay: 3H-CGP 12177 whole cell binding, beta1; conditions: 3H-CGP12177 whole-cell binding, CHO cells expressing human beta1-adrenoceptor, given as negative Log KD; for Kd: read-out: Beta 1 Log KD (converted)
T1 construct: expressed in transfected cells; host or cells: CHO cells
Procedure: (§1) Selectivity of ligands for the three beta-adrenoceptors was assessed by whole-cell binding studies using ^3H-CGP12177 in CHO cells expressing the human beta1, beta2 or beta3-adrenoceptors respectively essentially as described by Baker (2005; Br. J Pharmacol: 144, 317-22). Values shown are KD values determined as described by Baker (2005). KD represents the concentration of compound required to occupy 50% of the receptors in cells or tissues.
(§2) The selectivity of a ligand is given by the ratio of beta-1 to beta-2 KD. Accordingly a difference of one in the logarithmic values thereof represents a 10-fold selectivity, a difference of 2 represents 100-fold selectivity and a difference of 3 represents 1000-fold selectivity etc.

human beta2-adrenoceptor = biological target: T2, human beta2-adrenoceptor (Homo sapiens, UniProt P07550); assay: 3H-CGP 12177 whole cell binding, beta2; conditions: 3H-CGP12177 whole-cell binding, CHO cells expressing human beta2-adrenoceptor, given as negative Log KD; for Kd: read-out: Beta 2 Log KD (converted)
T2 construct: expressed in transfected cells; host or cells: CHO cells
Procedure: as §1, §2

T1 sequence (P08588 whole entry): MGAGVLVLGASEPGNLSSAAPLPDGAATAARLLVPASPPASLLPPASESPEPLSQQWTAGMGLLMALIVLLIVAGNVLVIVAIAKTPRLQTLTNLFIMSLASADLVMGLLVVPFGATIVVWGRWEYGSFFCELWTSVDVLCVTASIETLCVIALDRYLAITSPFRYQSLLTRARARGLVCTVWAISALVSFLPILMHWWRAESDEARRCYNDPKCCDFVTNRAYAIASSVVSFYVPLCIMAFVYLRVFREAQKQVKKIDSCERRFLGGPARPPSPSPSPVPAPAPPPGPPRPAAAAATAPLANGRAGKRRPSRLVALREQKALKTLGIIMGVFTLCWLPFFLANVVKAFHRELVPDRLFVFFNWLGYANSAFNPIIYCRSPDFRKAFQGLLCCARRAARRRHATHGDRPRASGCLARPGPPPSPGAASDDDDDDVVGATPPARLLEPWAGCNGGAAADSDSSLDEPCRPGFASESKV

Compound	Beta 1 Log KD (human beta1-adrenoceptor)	Beta 2 Log KD (human beta2-adrenoceptor)	Kd (human beta1-adrenoceptor) [nM]	Kd (human beta2-adrenoceptor) [nM]	melting point [°C]
1-(2-(2-Hydroxy-3-(2-methylbenzofuran-5-yloxy)propylamino)ethyl)-3-(4-hydroxyphenyl)urea [Example 610c]	−6.55	−5.16	–	–	–
1-(2-(3-(3-(Ethoxymethyl)-2,3-dihydrobenzo[b][1,4]dioxin-6-yloxy)-2-hydroxypropylamino)ethyl)-3-(4-hydroxyphenyl)urea and 1-(2-(3-(2-(ethoxymethyl)-2,3-dihydrobenzo[b][1,4]dioxin-6-yloxyl-2-hydroxypropylamino)ethyl)-3-(4-hydroxyphenyl)urea [Example 76]	−6.84	−4.69	–	–	–
O=C(NCCNCC(O)C1COc2ccccc2O1)Nc1ccc(O)cc1 (mixture of isomers) [Example 46b, 1-(2-(2-(2,3-dihydrobenzo[b][1,4]dioxin-2-yl)-2-hydroxyethylamino)ethyl)-3-(4-hydroxyphenyl)urea]	–	–	11	97.7	141
O=C(NCCNCC(O)COc1ccc2c(c1)OC(c1ccccc1)CC2=O)Nc1cccc(Cl)c1 (stereo not shown) [Example 4a, 1-(3-chlorophenyl)-3-(2-(2-hydroxy-3-(4-oxo-2-phenylchroman-7-yloxy)propylamino)ethyl)urea]	–	–	407	3090	–
O=C(NCCNCC(O)COc1ccc2oc(-c3ccccc3)cc(=O)c2c1)Nc1cccc(Cl)c1 (stereo not shown) [Example 4b, 1-(3-chlorophenyl)-3-(2-(2-hydroxy-3-(4-oxo-2-phenyl-4H-chromen-6-yloxy)propylamino)ethyl)urea]	–	–	617	4470	165
O=C(NCCNCC(O)COc1ccc2oc(=O)ccc2c1)Nc1cccc(Cl)c1 (stereo not shown) [Example 4c, 1-(3-chlorophenyl)-3-(2-(2-hydroxy-3-(2-oxo-2H-chromen-6-yloxy)propylamino)ethyl)urea]	–	–	355	9330	160
Cc1cc(=O)oc2ccc(OCC(O)CNCCNC(=O)Nc3cccc(Cl)c3)cc12 (stereo not shown) [Example 4d, 1-(3-chlorophenyl)-3-(2-(2-hydroxy-3-(4-methyl-2-oxo-2H-chromen-6-yloxy)propylamino)ethyl)urea]	–	–	389	4470	158
CCOC(=O)c1cc2cc(OCC(O)CNCCNC(=O)Nc3cccc(Cl)c3)ccc2o1 (stereo not shown) [Example 24a, Ethyl-5-(3-(2-(3-(3-Chlorophenyl)ureido)ethylamino)-2-hydropropoxy)benzofuran-2-carboxylate]	−6.50	−5.27	–	–	–
NC(=O)c1cc2cc(OCC(O)CNCCNC(=O)Nc3cccc(Cl)c3)ccc2o1 (stereo not shown) [Example 24b, 5-(3-(2-(3-(3-chlorophenyl)ureido)ethylamino)-2-hydropropoxy)benzofuran-2-carboxamide]	–	–	501	6460	–
O=C(NCCNCC(O)C1COc2ccccc2O1)Nc1cccc(Cl)c1 (stereo not shown) [Example 46a, 1-(3-chlorophenyl)-3-(2-(2-(2,3-dihydrobenzo[b][1,4]dioxin-2-yl)-2-hydroxyethylamino)ethyl)urea]	–	–	3.98	57.5	141
O=C(NCCNCC(O)C1Cc2cc(OCCOC3CCCC3)ccc2O1)Nc1ccc(O)cc1 (stereo not shown) [Example 63a, 1-(2-(2-(5-(2-(cyclopentyloxy)ethoxy)-2,3-dihydrobenzofuran-2-yl)-2-hydroxyethylamino)ethyl)-3-(4-hydroxyphenyl)urea]	–	–	537	26900	–
O=C(NCCNCC(O)c1cc2cc(OCCOC3CCCC3)ccc2o1)Nc1ccc(O)cc1 (stereo not shown) [Example 63b, 1-(2-(2-(5-(2-(cyclopentyloxy)ethoxy)benzofuran-2-yl)-2-hydroxyethylamino)ethyl)-3-(4-hydroxyphenyl)urea]	–	–	155	44700	–
Cc1ccc2cc(C(O)CNCCNC(=O)Nc3ccc(O)cc3)oc2c1 (stereo not shown) [Example 63c]	–	–	46.8	525	152.5
COc1ccc2oc(C(O)CNCCNC(=O)Nc3ccc(O)cc3)cc2c1 (stereo not shown) [Example 63d]	–	–	224	3160	151
CCOCc1cc2cc(OCC(O)CNCCNC(=O)Nc3ccc(O)cc3)ccc2o1 (stereo not shown) [Example 610a, 1-(2-(3-(2-(Ethoxymethyl)benzofuran-5-yloxy)-2-hydroxypropylamino)ethyl)-3-(4-hydroxyphenyl)urea]	–	–	257	10200	131.5
CCOCC1Cc2cc(OCC(O)CNCCNC(=O)Nc3ccc(O)cc3)ccc2O1 (stereo not shown) [Example 610b]	−6.78	−4.79	–	–	–

From US20150051270A1, “Novel Cyclic Phenoxy Compounds and Improved Treatments for Cardiac and Cardiovascular Disease” (University of Nottingham, priority 2012, published 2015)
